{
  "source": "ChEMBL document CHEMBL1133517",
  "about": "“Design, radiosynthesis, and biodistribution of a new potent and selective ligand for in vivo imaging of the adenosine A(2A) receptor system using positron emission tomography” (J Med Chem, 2000)",
  "key": {"Adenosine receptor A1 [1]": {"target": "T1, Adenosine receptor A1 (Homo sapiens, UniProt P30542)", "T1 sequence (P30542 whole entry)": "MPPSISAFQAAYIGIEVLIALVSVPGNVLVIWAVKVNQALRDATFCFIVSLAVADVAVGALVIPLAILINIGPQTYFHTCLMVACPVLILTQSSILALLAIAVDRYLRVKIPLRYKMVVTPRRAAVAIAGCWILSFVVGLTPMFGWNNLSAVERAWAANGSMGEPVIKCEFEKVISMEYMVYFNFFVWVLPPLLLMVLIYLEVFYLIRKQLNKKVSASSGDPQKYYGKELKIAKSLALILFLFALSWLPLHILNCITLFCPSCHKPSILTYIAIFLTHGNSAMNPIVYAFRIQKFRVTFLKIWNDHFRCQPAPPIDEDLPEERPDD", "assay": "Inhibitory activity against human adenosine A1 receptor expressed in CHO cells by displacement of [3H]DPCPX", "type": "cell-based"}, "Adenosine receptor A3 [2]": {"target": "T2, Adenosine receptor A3 (Homo sapiens, UniProt P0DMS8)", "T2 sequence (P0DMS8 whole entry)": "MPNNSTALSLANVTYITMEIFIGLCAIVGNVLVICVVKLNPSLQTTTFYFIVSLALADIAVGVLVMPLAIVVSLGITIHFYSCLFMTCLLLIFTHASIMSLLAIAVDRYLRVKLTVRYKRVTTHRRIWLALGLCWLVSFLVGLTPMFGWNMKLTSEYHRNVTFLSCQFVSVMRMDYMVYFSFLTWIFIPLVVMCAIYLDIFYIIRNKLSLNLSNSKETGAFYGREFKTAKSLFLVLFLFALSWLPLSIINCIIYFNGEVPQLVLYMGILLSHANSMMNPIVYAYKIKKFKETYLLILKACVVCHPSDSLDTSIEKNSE", "assay": "Displacement of [125I]AB-MECA from human adenosine A3 receptor expressed in HEK293 cells", "type": "cell-based"}, "Adenosine receptor A3 [3]": {"target": "T3, Adenosine receptor A3 (Rattus norvegicus, UniProt P28647)", "T3 sequence (P28647 whole entry)": "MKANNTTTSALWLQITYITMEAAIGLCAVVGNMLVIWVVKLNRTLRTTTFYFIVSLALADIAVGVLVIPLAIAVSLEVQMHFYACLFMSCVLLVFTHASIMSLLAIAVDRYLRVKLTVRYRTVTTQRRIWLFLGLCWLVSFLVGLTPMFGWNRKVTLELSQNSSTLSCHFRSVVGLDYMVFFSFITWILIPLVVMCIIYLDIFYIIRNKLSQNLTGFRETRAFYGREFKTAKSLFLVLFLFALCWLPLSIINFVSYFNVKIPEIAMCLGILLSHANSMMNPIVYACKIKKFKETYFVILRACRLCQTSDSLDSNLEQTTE", "assay": "Inhibitory activity against rat adenosine A3 receptor expressed in HEK293 cells by displacement of [125I]AB-MECA", "type": "cell-based"}, "Adenosine receptor A1 [4]": {"target": "T4, Adenosine receptor A1 (Rattus norvegicus, UniProt P25099)", "T4 sequence (P25099 whole entry)": "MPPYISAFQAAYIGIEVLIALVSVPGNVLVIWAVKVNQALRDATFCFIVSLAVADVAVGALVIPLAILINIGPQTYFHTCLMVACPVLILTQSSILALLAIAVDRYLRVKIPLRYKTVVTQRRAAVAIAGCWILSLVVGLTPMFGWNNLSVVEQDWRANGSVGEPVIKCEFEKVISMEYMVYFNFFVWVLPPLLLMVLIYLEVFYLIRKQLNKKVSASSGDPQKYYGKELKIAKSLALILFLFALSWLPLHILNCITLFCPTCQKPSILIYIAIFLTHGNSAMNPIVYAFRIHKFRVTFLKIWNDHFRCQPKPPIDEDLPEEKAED", "assay": "Displacement of [3H]DPCPX from adenosine A1 receptor in rat brain membranes", "type": "cell membranes"}, "Adenosine receptor A2b": {"target": "T5, Adenosine receptor A2b (Homo sapiens, UniProt P29275)", "T5 sequence (P29275 whole entry)": "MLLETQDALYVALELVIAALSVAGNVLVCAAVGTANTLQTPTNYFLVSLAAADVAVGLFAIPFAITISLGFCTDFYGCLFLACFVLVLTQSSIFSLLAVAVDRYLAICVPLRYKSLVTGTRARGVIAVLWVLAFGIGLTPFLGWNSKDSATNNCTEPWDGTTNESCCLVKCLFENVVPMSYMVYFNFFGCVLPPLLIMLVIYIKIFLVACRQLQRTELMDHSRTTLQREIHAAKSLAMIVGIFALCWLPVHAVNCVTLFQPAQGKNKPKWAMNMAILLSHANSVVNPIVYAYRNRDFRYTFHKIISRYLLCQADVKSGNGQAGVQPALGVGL", "assay": "Inhibitory activity against human adenosine A2B receptor expressed in HEK293 cells by displacement of [3H]DPCPX", "type": "cell-based"}},
  "data": [
    {"smiles": "COc1ccc(CCCn2ncc3c2nc(N)n2nc(-c4ccco4)nc32)cc1", "values": [
      {"measurement": "Ki", "setting": "Adenosine receptor A1 [1]", "result": 1.11, "unit": "µM"},
      {"measurement": "Ki", "setting": "Adenosine receptor A3 [2]", "result": "> 10", "unit": "µM"},
      {"measurement": "Ki", "setting": "Adenosine receptor A3 [3]", "result": "> 10", "unit": "µM"},
      {"measurement": "Ki", "setting": "Adenosine receptor A1 [4]", "result": 1.81, "unit": "µM"},
      {"measurement": "Ki", "setting": "Adenosine receptor A2b", "result": "> 10", "unit": "µM"}
    ]}
  ]
}
